According to publication PMC12679472, “The structural requirements of 3,5-substituted oxindoles that determine selective AMPK or GSK3β inhibition” (RSC Medicinal Chemistry, 2025):
Where two headings read alike, the source gives them in different places.

Key:
[1] = molecular target: purified recombinant human AMPK (α1β1γ1) (Homo sapiens, UniProt P54619+Q13131+Q9Y478); test: radiometric [33P]-ATP kinase activity assay, AMPK; type: biochemical; settings: for IC50: 10 μM [33P]-ATP; for EC50: concentration axis Log(M)
[2] = molecular target: purified recombinant human AMPK (α1β1γ1) (Homo sapiens, UniProt Q13131); test: radiometric [33P]-ATP kinase activity assay, AMPK; type: biochemical; settings: for inhibition of AMPK activity (in words): up to 10 μM; for Hill Slope: AMPK curve fit, kinase profiling report; for HillSlope (GraphPad Prism best-fit, AMPK) / LogEC50 (GraphPad Prism best-fit, AMPK): sigmoidal dose-response variable slope; for LogEC50 (GraphPad Prism best-fit, AMPK): concentration axis Log(M); for % Activity (enzyme activity relative to DMSO controls): AMPK
[3] = molecular target: purified recombinant human GSK3β (Homo sapiens, UniProt P49841); test: radiometric [33P]-ATP kinase activity assay, GSK3β; settings: for Hill Slope: GSK3β curve fit, kinase profiling report; for HillSlope (GraphPad Prism best-fit, GSK3β) / LogEC50 (GraphPad Prism best-fit, GSK3β): sigmoidal dose-response variable slope
[4] = test system: AMPK; parameters: method as in PMID 23410232; settings: at 10 μM; cited from earlier work
[5] = test system: GSK3β; parameters: method as in PMID 23410232; settings: at 10 μM; cited from earlier work
[6] = test system: cellular AMPK activity; settings: cited from earlier work
[7] = 10-dose singlet, 3-fold dilutions from 10 μM, read-out: AMPK IC50

purified recombinant human AMPK (α1β1γ1) (Homo sapiens, UniProt P54619+Q13131+Q9Y478), sequence (Q13131 whole entry): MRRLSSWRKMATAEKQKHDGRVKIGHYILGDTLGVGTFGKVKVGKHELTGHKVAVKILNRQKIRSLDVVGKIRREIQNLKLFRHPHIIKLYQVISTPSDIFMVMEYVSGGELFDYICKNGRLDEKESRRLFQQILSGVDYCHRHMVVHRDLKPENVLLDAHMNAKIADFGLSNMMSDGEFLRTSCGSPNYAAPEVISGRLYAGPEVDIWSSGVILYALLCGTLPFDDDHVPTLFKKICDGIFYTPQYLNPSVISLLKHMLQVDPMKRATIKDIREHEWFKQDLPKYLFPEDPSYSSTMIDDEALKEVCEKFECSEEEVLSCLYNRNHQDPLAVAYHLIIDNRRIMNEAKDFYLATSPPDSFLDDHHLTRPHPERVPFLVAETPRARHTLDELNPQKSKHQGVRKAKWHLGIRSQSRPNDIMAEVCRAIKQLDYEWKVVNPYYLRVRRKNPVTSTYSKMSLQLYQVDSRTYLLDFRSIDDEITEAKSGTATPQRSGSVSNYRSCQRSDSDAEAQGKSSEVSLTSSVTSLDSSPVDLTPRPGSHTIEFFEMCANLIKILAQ
purified recombinant human AMPK (α1β1γ1) (Homo sapiens, UniProt P54619+Q13131+Q9Y478), sequence (Q9Y478 whole entry partner): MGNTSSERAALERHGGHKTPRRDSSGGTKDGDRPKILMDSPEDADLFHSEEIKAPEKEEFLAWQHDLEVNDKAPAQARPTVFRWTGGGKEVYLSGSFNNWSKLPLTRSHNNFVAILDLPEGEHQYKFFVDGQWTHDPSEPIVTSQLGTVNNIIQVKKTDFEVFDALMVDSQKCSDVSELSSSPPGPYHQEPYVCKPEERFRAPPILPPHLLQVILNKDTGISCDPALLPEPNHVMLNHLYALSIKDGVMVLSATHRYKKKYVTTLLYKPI
purified recombinant human AMPK (α1β1γ1) (Homo sapiens, UniProt P54619+Q13131+Q9Y478), sequence (P54619 whole entry partner): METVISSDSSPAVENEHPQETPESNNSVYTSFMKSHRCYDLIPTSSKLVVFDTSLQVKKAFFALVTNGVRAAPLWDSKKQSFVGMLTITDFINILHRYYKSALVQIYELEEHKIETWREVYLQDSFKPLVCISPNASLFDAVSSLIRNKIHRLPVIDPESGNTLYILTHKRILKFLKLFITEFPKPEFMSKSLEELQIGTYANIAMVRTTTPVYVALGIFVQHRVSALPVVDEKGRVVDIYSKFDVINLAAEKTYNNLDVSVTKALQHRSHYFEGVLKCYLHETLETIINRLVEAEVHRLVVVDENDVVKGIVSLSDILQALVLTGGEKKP
purified recombinant human AMPK (α1β1γ1) (Homo sapiens, UniProt Q13131), sequence (Q13131 whole entry): as the sequence (Q13131 whole entry) above
purified recombinant human AMPK (α1β1γ1) (Homo sapiens, UniProt Q13131), sequence (Q9Y478 whole entry partner): as the sequence (Q9Y478 whole entry partner) above
purified recombinant human AMPK (α1β1γ1) (Homo sapiens, UniProt Q13131), sequence (P54619 whole entry partner): as the sequence (P54619 whole entry partner) above
purified recombinant human GSK3β, sequence (P49841 whole entry): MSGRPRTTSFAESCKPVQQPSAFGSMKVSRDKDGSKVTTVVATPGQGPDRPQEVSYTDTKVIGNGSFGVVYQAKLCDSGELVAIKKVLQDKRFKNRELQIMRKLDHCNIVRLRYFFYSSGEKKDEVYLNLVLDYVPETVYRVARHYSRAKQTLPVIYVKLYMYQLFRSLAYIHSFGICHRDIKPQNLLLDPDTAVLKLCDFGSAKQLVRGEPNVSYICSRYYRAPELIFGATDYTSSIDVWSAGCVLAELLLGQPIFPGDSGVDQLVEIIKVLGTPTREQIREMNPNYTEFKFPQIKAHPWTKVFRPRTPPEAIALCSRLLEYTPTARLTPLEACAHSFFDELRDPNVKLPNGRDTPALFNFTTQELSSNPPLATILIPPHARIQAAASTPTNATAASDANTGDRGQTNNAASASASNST

Row | SMILES | IC50 [1, 7] | inhibition of AMPK activity (in words) ([2]; 10 μM [33P]-ATP) | IC50 [3] | Hill Slope [3] | HillSlope (GraphPad Prism best-fit, GSK3β) [3] | Hill Slope [2] | also measured
1 | N#CCCc1ccc2c(c1)C(=Cc1ccc(CN3CCOCC3)cc1)C(=O)N2 (mixture of isomers) [Compound 7, (E/Z)-5-(2-Cyanoethyl)-3-(4-(morpholinomethyl)benzylidene)oxindole] | > 1e-05 M | did not demonstrate AMPK inhibition | > 10 µM |  |  |  | 
2 | CN1CCN(Cc2ccc(C=C3C(=O)Nc4ccc(CCC#N)cc43)cc2)CC1 (mixture of isomers) [Compound 8, (E/Z)-5-(2-Cyanoethyl)-3-(4-((4-methylpiperazin-1-yl)methyl)benzylidene)oxindole] | > 1e-05 M | did not demonstrate AMPK inhibition | > 10 µM |  |  |  | 
3 | N#Cc1ccc2c(c1)C(=Cc1ccc(CN3CCOCC3)cc1)C(=O)N2 (mixture of isomers) [Compound 11, (E/Z)-5-Cyano-3-(4-(morpholinomethyl)benzylidene)oxindole] | > 1e-05 M | did not demonstrate AMPK inhibition | 3.37 µM | -0.95 | -0.9491 |  | EC50 [3]: 3.37 µM; LogEC50 (GraphPad Prism best-fit, GSK3β) [3]: -5.472
4 | CN1CCN(Cc2ccc(C=C3C(=O)Nc4ccc(C#N)cc43)cc2)CC1 (mixture of isomers) [Compound 12, (E/Z)-5-Cyano-3-(4-((4-methylpiperazin-1-yl)methyl)benzylidene)oxindole] | > 1e-05 M | did not demonstrate AMPK inhibition | 8.29 µM | -0.95 | -0.9519 |  | EC50 [3]: 8.29 µM; LogEC50 (GraphPad Prism best-fit, GSK3β) [3]: -5.082
5 | N#Cc1ccc2[nH]c(O)c(-c3ccc(CN4CCOCC4)cn3)c2c1 [AZD1080] |  |  |  |  |  |  | inhibition of AMPK kinase activity [4]: more than 50%; inhibition of GSK3β kinase activity [5]: more than 50%
6 | O=C1Nc2ccc(CCN3CCCCC3)cc2/C1=C/c1ccc(CN2CCOCC2)cc1 [Compound 9, (Z)-5-(2-(Piperidin-1-yl)ethyl)-3-(4-(morpholinomethyl)benzylidene)oxindole] | > 1e-05 M |  | > 10 µM |  |  |  | 
7 | CN1CCN(Cc2ccc(/C=C3\C(=O)Nc4ccc(CCN5CCCCC5)cc43)cc2)CC1 [Compound 10, (Z)-5-(2-(Piperidin-1-yl)ethyl)-3-(4-((4-methylpiperazin-1-yl)methyl)benzylidene)oxindole] | > 1e-05 M |  | > 10 µM |  |  |  | 
8 | N#Cc1ccc2c(c1)/C(=C/c1cc(CN3CCOCC3)c[nH]1)C(=O)N2 [Compound 13, (Z)-5-Cyano-3-((4-(morpholinomethyl)-1H-pyrrol-2-yl)methylene)oxindole] |  | demonstrated AMPK inhibition | 4.92 µM | -0.59 | -0.5892 | -0.38 | EC50 ([1]; sigmoidal fit, extrapolated beyond 10 μM, read-out: EC50 (GraphPad Prism best-fit, % activity against AMPK), beyond top dose): 1.87e-05 M; IC50 ([1]; supplement kinase profiling report, read-out: IC50 (M) AMPK(A1/B1/G1)): > 1e-05 M; HillSlope (GraphPad Prism best-fit, AMPK) [2]: -0.3757; LogEC50 (GraphPad Prism best-fit, AMPK), beyond top dose ([2]; sigmoidal fit, extrapolated beyond 10 μM): -4.728; EC50 [3]: 4.92 µM; LogEC50 (GraphPad Prism best-fit, GSK3β) [3]: -5.308
9 | N#CCCc1ccc2c(c1)/C(=C/c1cc(CN3CCOCC3)c[nH]1)C(=O)N2 [Compound 14, (Z) 5-(2-cyanoethyl)-3-((4-(morpholinomethyl)-1H-pyrrol-2-yl)methylene)oxindole] | 5.04e-06 M | demonstrated AMPK inhibition | > 10 µM |  |  | -0.86 | EC50 ([1]; sigmoidal dose-response variable slope, Bottom = 0, read-out: EC50 (GraphPad Prism best-fit, % activity against AMPK)): 5.04e-06 M; HillSlope (GraphPad Prism best-fit, AMPK) [2]: -0.8552; LogEC50 (GraphPad Prism best-fit, AMPK) [2]: -5.298; inhibition of GSK3β kinase activity (in words) ([3]; up to 10 μM, 10 μM [33P]-ATP): did not show detectable GSK3β inhibition
10 | c1cc(-c2cnn3cc(-c4ccc(OCCN5CCCCC5)cc4)cnc23)ccn1 [Compound C, dorsomorphin] |  |  |  |  |  |  | concentration required to inhibit cellular AMPK activity [6]: > 10 µM
11 | Cn1cc(C2=C(c3cn(CCCSC(=N)N)c4ccccc34)C(=O)NC2=O)c2ccccc21 [RO-31-8220, reference compound] |  |  |  |  |  | -0.77 | % Activity (enzyme activity relative to DMSO controls) ([2]; Ro-31-8220 Conc. 1.02E-09 M): 91.37%; % Activity (enzyme activity relative to DMSO controls) ([2]; Ro-31-8220 Conc. 2.00E-05 M): 5.65%; % Activity (enzyme activity relative to DMSO controls) ([2]; Ro-31-8220 Conc. 2.22E-06 M): 9.47%; % Activity (enzyme activity relative to DMSO controls) ([2]; Ro-31-8220 Conc. 2.47E-07 M): 25.85%; % Activity (enzyme activity relative to DMSO controls) ([2]; Ro-31-8220 Conc. 2.74E-08 M): 71.55%; % Activity (enzyme activity relative to DMSO controls) ([2]; Ro-31-8220 Conc. 3.05E-09 M): 90.55%; % Activity (enzyme activity relative to DMSO controls) ([2]; Ro-31-8220 Conc. 6.67E-06 M): 3.95%; % Activity (enzyme activity relative to DMSO controls) ([2]; Ro-31-8220 Conc. 7.41E-07 M): 12.59%; % Activity (enzyme activity relative to DMSO controls) ([2]; Ro-31-8220 Conc. 8.23E-08 M): 51.73%; % Activity (enzyme activity relative to DMSO controls) ([2]; Ro-31-8220 Conc. 9.14E-09 M): 78.23%; IC50 ([2]; supplement kinase profiling report, 10 μM [33P]-ATP, read-out: IC50 (M) AMPK(A1/B1/G1)): 8.36e-08 M
12 | CNC(=O)c1ccccc1Oc1nc(Nc2cc(OC)c(OC)c(OC)c2)ncc1Br [SBI-0206965] |  |  |  |  |  |  | concentration required to inhibit cellular AMPK activity [6]: > 10 µM
13 | CCN(CC)CCNC(=O)c1c(C)[nH]c(/C=C2\C(=O)Nc3ccc(F)cc32)c1C [Sunitinib, sunitinib, reference compound] |  |  |  | -0.78 | -0.7769 | -0.78 | HillSlope (GraphPad Prism best-fit, AMPK) [2]: -0.7785; LogEC50 (GraphPad Prism best-fit, AMPK) [2]: -7.395; concentration required to inhibit cellular AMPK activity [6]: < 5 µM
